Results from ChEMBL document CHEMBL5120799, “A Nrf-2 Stimulatory Hydroxylated Cannabidiol Derivative from Hemp (Cannabis sativa)” (J Nat Prod, 2022).
Active and inactive are the calls of the source. The rule behind the calls is not given here.

Columns and labels:
[1] = target: T1, Nuclear factor erythroid 2-related factor 2 (Homo sapiens) (UniProt Q16236); assay: Activation of Nrf2 transcriptional activity in human HaCaT-ARE-Luc cells at 25 uM incubated for 6 hrs by luciferase activity assay relative to control; assay type: cell-based; conditions: filed as activator
T1 sequence (whole entry): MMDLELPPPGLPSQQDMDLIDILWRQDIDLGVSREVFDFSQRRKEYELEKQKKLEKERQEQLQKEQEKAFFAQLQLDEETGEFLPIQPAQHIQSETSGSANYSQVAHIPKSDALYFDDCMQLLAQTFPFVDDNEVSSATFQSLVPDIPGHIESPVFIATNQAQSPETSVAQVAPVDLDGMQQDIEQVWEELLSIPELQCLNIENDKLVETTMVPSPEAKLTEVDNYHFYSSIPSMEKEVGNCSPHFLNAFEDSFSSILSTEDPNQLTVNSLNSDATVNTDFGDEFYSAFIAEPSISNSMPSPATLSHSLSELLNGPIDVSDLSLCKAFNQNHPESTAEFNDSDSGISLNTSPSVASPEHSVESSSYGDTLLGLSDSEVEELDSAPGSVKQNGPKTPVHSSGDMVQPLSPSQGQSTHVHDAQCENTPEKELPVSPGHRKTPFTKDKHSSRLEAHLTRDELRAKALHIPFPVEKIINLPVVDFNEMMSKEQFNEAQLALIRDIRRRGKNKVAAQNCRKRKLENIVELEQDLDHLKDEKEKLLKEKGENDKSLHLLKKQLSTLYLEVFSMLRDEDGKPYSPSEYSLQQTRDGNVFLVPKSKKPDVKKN

[2] = target: T1, Nuclear factor erythroid 2-related factor 2 (Homo sapiens); assay: Activation of Nrf2 transcriptional activity in human HaCaT-ARE-Luc cells at 10 uM incubated for 6 hrs by luciferase activity assay relative to control; assay type: cell-based; conditions: filed as activator
[3] = target: T1, Nuclear factor erythroid 2-related factor 2 (Homo sapiens); assay: Activation of Nrf2 transcriptional activity in human HaCaT-ARE-Luc cells at 1 uM incubated for 6 hrs by luciferase activity assay relative to control; assay type: cell-based
HaCaT [4] = assay: Inhibition of TBHP-induced ROS production in human HaCaT cells assessed as reduction on intracellular ROS level at 25 uM pretreated for 30 mins followed by TBHP stimulation and measured after 3 hrs by DCFH2-DA staining analysis; assay type: functional, cell-based; conditions: time 3.5 hrs
HaCaT [5] = assay: Inhibition of TBHP-induced ROS production in human HaCaT cells assessed as reduction on intracellular ROS level at 1 to 25 uM pretreated for 30 mins followed by TBHP stimulation and measured after 3 hrs by DCFH2-DA staining analysis; assay type: functional, cell-based; conditions: dose 1-25 µM, time 3.5 hrs, DDE = dose-dependent effect
[6] = target: T1, Nuclear factor erythroid 2-related factor 2 (Homo sapiens); assay: Activation of Nrf2 transcriptional activity in human HaCaT-ARE-Luc cells at 1 to 25 uM incubated for 6 hrs by luciferase activity assay; assay type: cell-based; conditions: filed as activator, dose 1-25 µM

**Q.** Which results are given for `C=C1CC[C@@H](C(=C)C)[C@H](c2c(O)cc(CCCCC)cc2O)[C@H]1O`?
**A.** Activity [1]: 202%; Activity [2]: 144%; Activity [3]: 20%; inhibition (HaCaT [4]): Active; inhibition (HaCaT [5]): Dde

**Q.** Which Activity [6] does the source give for `C=C(C)[C@@H]1CCC(C)=C[C@H]1c1c(O)cc(CCCCC)cc1O` here?
**A.** Active
